Laboratory results from patent US20030170252A1, “Antibody compositions specific for p33QIK and p63Krs1 polypeptides and uses thereof” (priority 2000, published 2003).
Read-outs that look alike come from different tables or passages of the source. Starred links: 1 amine or outer side, 2 acyl side, 3 side chain; linkers in the order of their positions; H or OH if unused. Positions of bridges follow the written chain, without caps; N, C: chain ends. Non-standard residues stand in square brackets, D forms with d. Residues, ends and D or L forms follow the SMILES beside them. Chains are numbered I, II in the order given. Actinocin(9to1) = Cc1c2oc3c(C)ccc(C(=O)[*:1])c3nc-2c(C(=O)[*:2])c(N)c1=O; NMeV = CN[C@H](C(=O)O)C(C)C; Sar = CNCC(=O)O

Experiments:
[1] = test system: p33^QIK; assay: In-gel kinase assay (MBP substrate) of p33^QIK activity in treated NIH3T3 cultures; format: cell-based, mouse; settings: for TPA-induced deactivation of p33^QIK: quiescent NIH3T3, co-treatment with 100 ng/ml TPA; for serum-induced down-regulation of p33^QIK activity: quiescent NIH3T3, co-treatment with 10% serum
Description: (§1) Mouse NIH3T3 fibroblast cultures were maintained in Dulbecco's modified Eagle's medium (DMEM)(BRL/GIBCO, Grand Island, N.Y.) supplemented with 5% calf serum, 50 units/ml penicillin, and 5 mcg/ml streptomycin, and cultivated at 37° C.
(§2) Mouse 10T1/2 fibroblast cultures were maintained in Basal medium Eagle (BRL/GIBCO, Grand Island, N.Y.) supplemented with 10% heat-inactivated fetal bovine serum, 50 U/ml penicillin, and 5 μg/ml streptomycin, and cultivated at 37° C. Cells synchronized in quiescent state were growth-arrested by serum starvation for 48 hr. Actinomycin D (ActD), cycloheximide (CHXM), 12-0-tetradecanoylphorbol 13-acetate (TPA), staurosporine (STSP) (Sigma Chemical, St. Louis, Mo.), sodium fluoride (NaF), sodium orthovanadate (Na3VO4) (Fisher Scientific, Pittsburgh, Pa.), and FR901228 (FR)(NCI, Frederick, Md.) were diluted in cultured medium before treatment of cultured cells. A broad range caspase inhibitor Z-Asp-[(2,6-dichlorobenzoyl)oxy]methane (Z-D-CH2-DCB) (Dolle et al., 1994; Mashima et al., 1995)(CALBIOCHEM, La Jolla, Calif.) was dissolved in dimethyl sulfoxide and diluted in cultured medium for treatment. Recombinant human Caspase-3 was purchased from Alexis Biochemicals (San Diego, Calif.). Protein phosphatase 1 (PP1) and Lambda protein phosphatase (λPPase) were purchased from NE BioLabs (Beverly, Mass.). Production of rabbit polyclonal antibody Ab-KQ to p63^Krsl and p33^QIK was made using peptide sequences of Krsl as antigens (Alpha Diagnostic International, San Antonio, Tex.). UV irradiation was carried out using a UV Crosslinker (Stratagene, La Jolla, Calif.).
(§3) Cells were lysed with 30 strokes of a tight-fitting Dounce homogenizer in lysis A buffer (10 mM KH2PO4, 1 mM EDTA, 5 mM EGTA, 10 mM MgCl2, 50 mM […], 1 mM Na3VO4, 2 mM dithiothreitol) (Wang et al., 1992). Cytoplasmic proteins (S20) were isolated from the supernatants after centrifugation of crude lysates at 20,000 ×g for 20 min. Protein concentration in S20 was measured by using the BCA assay (Pierce, Rockford, Ill.). Immunoprecipitation of p33^QIK was carried out by incubation of S20 with the specific antibody Ab-KQ at 0° C. for 1 hr. Immune complexes were adsorbed to Pansorbin (Staphylococcus aureus) (CALBIOCHEM, La Jolla, Calif.) at 0° C. for 30 min and washed with STE buffer (50 mM Tris-HCl, pH 7.0, 150 mM NaCl, 1 mM Na2 EDTA) supplemented with 0.1 mM DTT and 0.1% NP-40 and ST buffer supplemented with 1 mM DTT.
(§4) MBP (BRL/GIBCO, Grand Island, N.Y.) was used as a substrate in the assay and the in-gel kinase assay was performed as previously described (Wang et al., 1992). Briefly, 10% SDS-polyacrylamide gel (SDS-PAG) was copolymerized with 0.4 mg/ml MBP. Cellular proteins were resolved in the MBP-immobilized SDS-PAG, followed by rinsing the gel with 20% isopropanol in buffer B (100 mM Tris, pH 8, 5 mM β-mercaptoethanol). The gel was denatured in buffer B supplemented with 6 M guanidine-HCl and renatured with buffer B supplemented with 0.04% Tween 40 (Kameshita and Fujisawa, 1989). Kinase reaction was carried out by incubating the gel with kinase buffer (20 Mm Tris, pH 7.2, 10 mM MgCl2, 15 mM β-glycerolphosphate) supplemented with 50 μM γATP and 50 μCi of [γ-^32P]ATP at 22° C. for 30 min. The gel was washed with 1% sodium pyrophosphate in 5% trichloroacetic acid. Protein kinases which phosphorylated MBP in the gel were detected by autoradiography of the [γ^32P]-labeled MBP.

[2] = target: T1, Caspase-3 (Homo sapiens, UniProt P42574); assay: Inhibition of caspase-3 modification of immune complexes; format: biochemical; settings: 5 μM inhibitor, 0.2 μg Caspase-3, 37° C., 30 min
T1 construct: purchased Alexis Biochemicals (San Diego, Calif.)
T1 sequence (P42574 29-175 limits assumed): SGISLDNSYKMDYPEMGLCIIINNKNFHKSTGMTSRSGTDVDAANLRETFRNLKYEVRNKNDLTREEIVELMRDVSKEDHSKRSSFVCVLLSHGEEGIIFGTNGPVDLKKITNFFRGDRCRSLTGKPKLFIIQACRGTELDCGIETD
Description: Both p63^Krsl and p33^QIK in 10 μg of cytosolic lysates (S20) were immunoprecipitated by Ab-KQ (lanes 2 to 4 and 6 to 8), followed by reatment with 0.2 μg Caspase-3 (C)(lanes 3, 4, 7 and 8) in the presence of 5 μM caspase inhibitor Z-D-CH2-DCB (C+I)(lanes 4 and 8) at 37° C. for 30 min. The kinase activities of p63^Krsl, p35, and p33^QIK in 5 μg of S20 (lanes 1 and 5) and in the immune complexes were determined by the in-gel kinase assay using MBP as a substrate. Bars indicate p63^Krsl p35, and p33^QIK.
Mouse 10T1/2 fibroblast cultures were maintained in Basal medium Eagle (BRL/GIBCO, Grand Island, N.Y.) supplemented with 10% heat-inactivated fetal bovine serum, 50 U/ml penicillin, and 5 μg/ml streptomycin, and cultivated at 37° C. Cells synchronized in quiescent state were growth-arrested by serum starvation for 48 hr. Actinomycin D (ActD), cycloheximide (CHXM), 12-0-tetradecanoylphorbol 13-acetate (TPA), staurosporine (STSP) (Sigma Chemical, St. Louis, Mo.), sodium fluoride (NaF), sodium orthovanadate (Na3VO4) (Fisher Scientific, Pittsburgh, Pa.), and FR901228 (FR)(NCI, Frederick, Md.) were diluted in cultured medium before treatment of cultured cells. […]

[3] = test system: NIH3T3 cells; assay: Flow cytometric analysis of DNA content (cell cycle phase); format: cell-based, mouse; settings: proliferating NIH3T3 cultures, 5 nM FR, 24 hr
Description: After rinsing with phosphate buffered saline (PBS), cells were trypsinized from culture dishes, rinsed with Ca^++ and Mg^++ free PBS, fixed in 70% cold ethanol, and stained with 10 μg/ml propidium iodide (PI) for 30 min (Darzynkiewicz et al., 1995). Flow cytometry analysis was performed on the Coulter EPICS Elite Cytometer (Hialeah, Fla.) using 15 mW air-cooled argon laser producing 488-nm light in which PI fluorescence light emission is collected with a 610LPDC filter. Extended analysis of DNA content and calculation of the percentage of cells in each phase of the cell cycle were performed on Multicycle software (Phoenix Flow System, San Diego, Calif.).

[4] = target: p33^QIK; assay: In-gel kinase assay of p33^QIK activity in 10T1/2 cultures; format: cell-based; settings: mouse fibroblast 10T1/2 cultures treated with FR
Description: as §2, with “Production of rabbit polyclonal antibody Ab-KQ to p63^Krsl and p33^QIK was made using peptide sequences of Krsl as antigens (Alpha Diagnostic International, San Antonio, Tex.). UV irradiation was carried out using a UV Crosslinker (Stratagene, La Jolla, Calif.).” left out
MBP (BRL/GIBCO, Grand Island, N.Y.) was used as a substrate in the assay and the in-gel kinase assay was performed as previously described (Wang et al., 1992). […] Protein kinases which phosphorylated MBP in the gel were detected by autoradiography of the [γ^32P]-labeled MBP.

[5] = test system: 33 kDa-MBP kinase; settings: MCF-7 and MDA-MB361 cells treated with FR (Rajgolikar et al., 1998); cited from earlier work
[6] = target: p44/42^Erk; format: cell-based, mouse
Description: as §1, §2, §3, §4

[7] = test system: NIH3T3 cultures; assay: Cell death in quiescent NIH3T3 cultures; format: cell-based, mouse; settings: quiescent cultures treated with ActD or CHXM for 3 hr
[8] = quiescent NIH3T3 cultures (48 hr serum starvation) stimulated with reagent, 1-6 hr
[9] = quiescent NIH3T3, absence of serum, 5 μg/ml ActD or 10 μg/ml CHXM, 1 or 3 hr
[10] = 5 μg/ml ActD or 10 μg/ml CHXM, 1 or 3 hr
[11] = quiescent NIH3T3 treated with serum or TPA in the presence of ActD or CHXM

Compound | kinase activity of p33^QIK [1, 9] | TPA-induced deactivation of p33^QIK [1, 10] | serum-induced down-regulation of p33^QIK activity [1, 10] | kinase activity of p44/42^Erk [6, 11] | cell death [7] | further results
O=C(O)CC(NC(=O)OCc1ccccc1)C(=O)COC(=O)c1c(Cl)cccc1Cl [Z-D-CH2-DCB, Z-Asp-[(2,6-dichlorobenzoyl)oxy]methane] |  |  |  |  |  | induction of p33^QIK activity ([1]; cultures preincubated with caspase inhibitor prior to serum starvation and osmotic stress): neither blocked induction of p33^QIK activity; blockage of caspase-3 induced changes in p63^Krsl, p35 and p33^QIK activity [2]: completely blocked
C/C=C1\NC(=O)[C@H]2CSSCC/C=C/[C@H](CC(=O)N[C@H](C(C)C)C(=O)N2)OC(=O)[C@H](C(C)C)NC1=O [FR, FR901228] |  |  |  |  |  | kinase activity of p33^QIK ([1]; proliferating NIH3T3 cultures, 5 nM FR, 24 hr): p33^QIK activity was induced; cell population in each phase of the cell cycle [3]: growth arrest of cells in G0/G1 phase was evident; kinase activity of p33^QIK [4]: Activation of p33^QIK was also detected; 33 kDa-MBP kinase activity [5]: induction of a 33 kDa-MBP kinase activity
sodium orthovanadate [sodium vanadate] |  |  |  |  |  | kinase activity of p33^QIK [1, 8]: accelerated deactivation of p33^QIK; kinase activity of p44/42^Erk [6, 8]: profound and constant activation of p44/42^Erk
C[C@@H]1C[C@@H]([C@H](O)CC2CC(=O)NC(=O)C2)C(=O)[C@@H](C)C1 [CHXM, cycloheximide] | significant increases of p33^QIK activity | blockage of the TPA-induced deactivation of p33^QIK but also in an increase in the kinase activity of p33^QIK | blocked the serum-induced down-regulation of p33^QIK activity | constant activation of p44/42^Erk | extensive cell death occurred | 
Cc1c2oc3c(C)ccc(C(=O)N[C@@H]4C(=O)N[C@H](C(C)C)C(=O)N5CCC[C@H]5C(=O)N(C)CC(=O)N(C)[C@@H](C(C)C)C(=O)O[C@@H]4C)c3nc-2c(C(=O)N[C@@H]2C(=O)N[C@H](C(C)C)C(=O)N3CCC[C@H]3C(=O)N(C)CC(=O)N(C)[C@@H](C(C)C)C(=O)O[C@@H]2C)c(N)c1=O [ActD, Actinomycin D] (I: T[dV]P[Sar][NMeV] / II: T[dV]P[Sar][NMeV]; ester I:1-I:C, II:1-II:C; linker I:N-II:N via Actinocin(9to1)) | significant increases of p33^QIK activity | blockage of the TPA-induced deactivation of p33^QIK but also in an increase in the kinase activity of p33^QIK | blocked the serum-induced down-regulation of p33^QIK activity | constant activation of p44/42^Erk | extensive cell death occurred | 
